Target: T1, NMT (Homo sapiens, UniProt P30419)
T1 construct: host or cells: Cos-1
T1 sequence (P30419 1-496): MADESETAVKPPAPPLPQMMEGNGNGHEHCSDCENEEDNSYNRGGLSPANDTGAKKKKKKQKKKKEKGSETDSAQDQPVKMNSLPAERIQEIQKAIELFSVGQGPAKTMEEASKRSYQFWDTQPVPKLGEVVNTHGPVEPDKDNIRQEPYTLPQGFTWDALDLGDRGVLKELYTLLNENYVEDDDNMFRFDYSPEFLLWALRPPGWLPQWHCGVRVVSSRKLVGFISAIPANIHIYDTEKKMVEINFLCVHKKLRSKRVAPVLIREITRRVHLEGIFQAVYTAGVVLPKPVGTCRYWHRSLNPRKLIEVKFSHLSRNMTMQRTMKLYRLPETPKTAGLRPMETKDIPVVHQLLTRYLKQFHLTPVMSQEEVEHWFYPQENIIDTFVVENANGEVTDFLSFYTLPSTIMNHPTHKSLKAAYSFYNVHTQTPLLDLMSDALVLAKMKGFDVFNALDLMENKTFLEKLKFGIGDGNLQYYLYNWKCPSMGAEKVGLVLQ
Experiment: Membrane targeting of V5-tagged SHOC2^S2G in Cos-1 cells treated with an NMT inhibitor (confocal laser scanning microscopy)
Format: cell-based, African green monkey
Description: FIG. 8. Myristoylation is required for membrane targeting of the SHOC2^S2G mutant. […] Confocal laser scanning microscopy was performed using anti-V5 monoclonal antibody, followed by Alexa Fluor-594 goat anti-mouse antibody (red), while actin cytoskeleton was detected by Alexa Fluor 488-phalloidin (green). Nuclei are visualized by DAPI staining (blue). Co-localization areas were detected in yellow. Images represent single optical sections representative of >50 transfected cells observed in each experiment. Bars indicate 20 μm.
N-myristoylation facilitates anchoring of proteins to intracellular membranes. To explore whether it conferred membrane targeting to mutant SHOC2, the subcellular localization of tagged SHOC2 proteins was analyzed in Cos-1 cells (FIG. 2b and FIG. 6). Confocal laser microscopy analysis documented that SHOC2^wt was uniformly distributed in the cytoplasm and nucleus in starved cells but was restricted to the nucleus following EGF stimulation, implying an unexpected role for this protein in signal transduction. […]
In silico analysis of protein N-myristoylation was performed using Myristoylator (http://www.expasy.org/tools/myristoylator/), TermiNator (http://www.isv.cnrs-gif.fr/terminator3/index.html) and NMT (http.//mendel.imp.ac.at/sat/myristate/index.html) software. […] N-myristoylation was evaluated by [^3H]myristic acid (30 μCi/ml) incorporation as described elsewhere^26. […]

Compound: CCCCCCCCCCCCC(O)C(=O)O (centres unmarked) [2-hydroxymyristic acid]
- membrane targeting of V5-tagged SHOC2^S2G (Cos-1 cells treated with 200 μM (middle) and 300 μM (bottom), compared with untreated cells): progressively lost
- SHOC2^S2G's membrane localization (Cos-1 cells, treatment at varying doses (FIG. 8)): reduced or abolished

Reference: patent publication US8808992B2, “SHOC2 mutations causing noonan-like syndrome with loose anagen hair” (Icahn School of Medicine at Mount Sinai, priority 2009, dated 2014)
